# Calls of active or inactive are those of the source. Cut-off read from the data, not from the text of the source, for most assays here: actives have a measured EC50 and inactives only a lower limit.
# Assays:
# [1] = tested on: Streptococcus sp. 'group A'; assay: Streptococcus pyogenes SK(-)GAS viability under kanamycin – luminescence, BacTiterGlo, confirmation, counter-screen for streptokinase expression inhibitor project, dose response (AID 1900); format: functional, organism-based
# Streptococcus = assay: GAS UMAA2166 growth inhibition – luminescence, BacTiterGlo, counter-screen for streptokinase expression inhibitor project, dose response (AID 1915); format: functional, organism-based;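 note: potency for reduction of bacterial viability or growth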
# [2] = NIH3T3 cell viability loss – ATP luminescence, mouse fibroblasts, counter-screen, dose response (AID 2010); format: functional, cell-based;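 note: cells exposed to compound for about 90 hours before reading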
# [3] = Trypanosoma cruzi growth suppression in host cells – NIH3T3 host cells, beta-gal luminescence, confirmation (AID 2044); format: functional, cell-based;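 note: intracellular parasites grown in NIH/3T3 mouse fibroblasts as host cells; luminescent beta-galactosidase reporter signal from transgenic T. cruzi replicating inside host cells; inhibitors lower the luminescence signal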
# [4] = biological target: T1, Heat shock factor protein 1 (Mus musculus, UniProt P38532); assay: decrease of HSF1-responsive luciferase luminescence – cell-based, NIH3T3, dose retest, confirmation (AID 2382); format: functional;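 note: NIH3T3 fibroblasts with HSF1-driven luciferase reporter stressed by proteasome inhibitor MG132; luminescence from HSF1-driven luciferase expression after 8 hours of MG132 stress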
# T1 sequence (P38532 whole entry): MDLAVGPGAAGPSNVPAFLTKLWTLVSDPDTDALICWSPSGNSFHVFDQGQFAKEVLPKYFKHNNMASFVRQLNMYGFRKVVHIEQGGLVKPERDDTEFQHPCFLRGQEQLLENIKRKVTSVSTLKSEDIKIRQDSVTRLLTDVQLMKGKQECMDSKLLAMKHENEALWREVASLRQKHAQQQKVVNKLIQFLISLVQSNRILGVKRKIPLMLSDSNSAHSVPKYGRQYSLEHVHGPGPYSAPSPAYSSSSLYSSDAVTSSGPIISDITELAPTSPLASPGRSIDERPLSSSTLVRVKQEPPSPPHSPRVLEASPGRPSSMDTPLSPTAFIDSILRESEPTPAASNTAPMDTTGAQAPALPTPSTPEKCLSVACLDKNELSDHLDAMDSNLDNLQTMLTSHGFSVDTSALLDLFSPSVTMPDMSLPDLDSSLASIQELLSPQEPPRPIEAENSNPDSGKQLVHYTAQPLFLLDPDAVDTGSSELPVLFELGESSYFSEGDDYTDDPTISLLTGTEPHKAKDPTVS
# Cytochrome P450 2D6 = Cytochrome P450 2D6 (Homo sapiens, UniProt P10635);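 note: CYP2D6 member of a cytochrome P450 panel assay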
# Cytochrome P450 2D6, sequence (P10635 whole entry): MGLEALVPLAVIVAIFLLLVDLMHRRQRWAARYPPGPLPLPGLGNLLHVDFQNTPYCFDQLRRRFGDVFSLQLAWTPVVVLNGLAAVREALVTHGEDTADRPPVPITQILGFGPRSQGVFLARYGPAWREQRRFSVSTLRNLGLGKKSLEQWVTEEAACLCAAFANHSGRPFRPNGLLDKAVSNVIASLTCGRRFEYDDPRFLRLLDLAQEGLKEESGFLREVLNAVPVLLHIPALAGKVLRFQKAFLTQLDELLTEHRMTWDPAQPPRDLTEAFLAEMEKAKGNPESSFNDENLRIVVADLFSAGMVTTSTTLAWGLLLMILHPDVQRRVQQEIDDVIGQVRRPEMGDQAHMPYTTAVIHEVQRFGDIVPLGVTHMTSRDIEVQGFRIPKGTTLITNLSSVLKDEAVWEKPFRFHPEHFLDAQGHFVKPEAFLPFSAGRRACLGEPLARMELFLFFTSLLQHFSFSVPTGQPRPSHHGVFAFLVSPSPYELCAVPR
# Cytochrome P450 1A2 = biological target: T2, Cytochrome P450 1A2 (Homo sapiens, UniProt P05177);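 note: PubChem cytochrome P450 panel assay, CYP1A2 panel member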
# T2 sequence (P05177 whole entry): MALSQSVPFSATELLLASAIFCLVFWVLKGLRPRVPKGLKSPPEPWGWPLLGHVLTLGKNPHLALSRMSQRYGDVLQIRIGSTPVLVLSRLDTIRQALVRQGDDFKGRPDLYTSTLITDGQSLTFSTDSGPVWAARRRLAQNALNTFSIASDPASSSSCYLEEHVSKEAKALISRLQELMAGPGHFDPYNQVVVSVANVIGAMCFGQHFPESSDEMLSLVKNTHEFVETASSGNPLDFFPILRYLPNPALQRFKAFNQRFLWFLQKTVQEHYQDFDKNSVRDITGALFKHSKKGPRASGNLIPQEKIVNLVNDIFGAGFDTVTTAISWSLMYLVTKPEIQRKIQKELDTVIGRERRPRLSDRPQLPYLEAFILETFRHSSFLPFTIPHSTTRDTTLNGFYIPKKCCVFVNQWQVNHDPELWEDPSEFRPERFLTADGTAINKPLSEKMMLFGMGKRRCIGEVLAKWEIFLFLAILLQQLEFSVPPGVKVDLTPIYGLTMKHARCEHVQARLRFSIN
# Streptokinase A = biological target: T3, Streptokinase A (Streptococcus pyogenes serotype M1, UniProt P10520); assay: viability-normalized secreted streptokinase activity reduction – plasminogen activation absorbance, OD405, dose response (AID 1914); format: functional, Streptococcus pyogenes M1 GAS;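 note: secreted streptokinase activity via plasminogen activation per viability signal from cell pellet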
# T3 sequence (P10520 whole entry): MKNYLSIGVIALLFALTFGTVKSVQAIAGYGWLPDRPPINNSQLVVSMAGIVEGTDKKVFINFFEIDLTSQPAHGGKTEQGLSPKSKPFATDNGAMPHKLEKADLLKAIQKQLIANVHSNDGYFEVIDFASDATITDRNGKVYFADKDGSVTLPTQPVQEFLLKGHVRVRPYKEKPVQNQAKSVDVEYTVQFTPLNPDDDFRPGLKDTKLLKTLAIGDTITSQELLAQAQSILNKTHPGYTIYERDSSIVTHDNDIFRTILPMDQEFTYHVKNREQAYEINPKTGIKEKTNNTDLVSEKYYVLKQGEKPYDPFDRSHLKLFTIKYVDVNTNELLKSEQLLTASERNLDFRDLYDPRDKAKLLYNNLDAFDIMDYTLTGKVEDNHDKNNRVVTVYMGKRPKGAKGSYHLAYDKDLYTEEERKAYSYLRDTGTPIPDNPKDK
# Paired box protein Pax-8 = Paired box protein Pax-8 (Homo sapiens, UniProt Q06710); assay: PAX8 transcriptional activity inhibition in RMG-I – RMG-I cells, luciferase, cherry-pick, dose response (AID 687027); format: functional, cell-based;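 note: luciferase reporter driven by Pax8 target thyroperoxidase promoter measured by SteadyGlo luminescence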
# Paired box protein Pax-8, sequence (Q06710 whole entry): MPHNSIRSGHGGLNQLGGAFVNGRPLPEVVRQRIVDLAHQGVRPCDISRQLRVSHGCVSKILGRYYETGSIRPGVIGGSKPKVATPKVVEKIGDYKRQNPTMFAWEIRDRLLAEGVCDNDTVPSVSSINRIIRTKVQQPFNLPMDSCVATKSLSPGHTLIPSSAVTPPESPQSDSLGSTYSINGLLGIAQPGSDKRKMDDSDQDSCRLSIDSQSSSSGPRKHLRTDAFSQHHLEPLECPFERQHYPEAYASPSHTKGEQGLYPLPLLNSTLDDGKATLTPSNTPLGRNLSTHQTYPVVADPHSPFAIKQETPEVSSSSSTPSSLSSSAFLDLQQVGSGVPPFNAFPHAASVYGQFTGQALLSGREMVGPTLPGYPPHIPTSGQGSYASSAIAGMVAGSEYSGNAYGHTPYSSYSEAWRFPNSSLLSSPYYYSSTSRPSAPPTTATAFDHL
smiles,measurement,setting,value
Cc1nn(-c2ccccc2)c(Cl)c1C1C(C#N)=C(N)Oc2c1c(=O)oc1ccccc21 (stereo unspecified),EC50,[1],0.197 µM (active)
same,EC50,Streptococcus,0.344 µM (active)
COc1ccccc1NC(=O)/C=C1\SCC(=O)N1C,EC50,[2],> 60 µM (not active)
same,EC50,[3],0.949 µM (active)
CC1CCCN(CCCOc2ccc(Cl)cc2Br)C1 (stereo unspecified),EC50,[4],> 195 µM (not active)
CC1CCN(S(=O)(=O)c2ccc(NC(=O)CN3CCN(C)CC3)cc2)CC1,EC50,[2],> 60 µM (not active)
same,EC50,[3],0.738 µM (active)
CCOc1ccc(NC(=O)C2CCCN(c3nn4c(=O)cc(C)nc4s3)C2)cc1 (stereo unspecified),EC50,[4],> 195 µM (not active)
O=C(C1CCCN(S(=O)(=O)c2cccc3nsnc23)C1)N1CC=C(c2ccccc2)CC1 (stereo unspecified),AC50,Cytochrome P450 2D6,5.01 µM (inconclusive)
same,AC50,Cytochrome P450 1A2,14.1 µM (inconclusive)
COc1ccc(NC(=O)c2ccc([N+](=O)[O-])cc2[N+](=O)[O-])c(OC)c1,EC50,[2],> 30 µM (not active)
same,EC50,[3],1.16 µM (active)
COc1ccccc1-c1cc(NCc2cccc(C)c2)ncn1,AC50,Cytochrome P450 2D6,20 µM (inconclusive)
c1ccc2c(NC3CCNCC3)nc(-c3ccoc3)nc2c1,AC50,Cytochrome P450 2D6,7.94 µM (inconclusive)
Cc1nc2cnc(Oc3ccccc3)nc2n(Cc2cccs2)c1=O,AC50,Cytochrome P450 2D6,31.6 µM (inconclusive)
O=S(=O)(c1ccc(Cl)s1)N1CCc2ccccc2C1,AC50,Cytochrome P450 2D6,31.6 µM (inconclusive)
same,AC50,Cytochrome P450 1A2,25.1 µM (inconclusive)
O=C(O)CCN1C(=S)CSC1=S,AC50,Cytochrome P450 1A2,5.01 µM (inconclusive)
Cc1ccc(NC(=O)/C(=C\c2ccc3c(c2)OCO3)NC(=O)c2ccco2)cc1,AC50,Cytochrome P450 2D6,15.8 µM (inconclusive)
same,AC50,Cytochrome P450 1A2,11.2 µM (inconclusive)
O=C(CN1C(=O)C2C3C=CC(C3)C2C1=O)OCC(=O)c1ccc(Br)cc1 (stereo unspecified),EC50,[4],> 195 µM (not active)
Cc1ccc(CN2CCN(Cc3ccccc3)CC2)cc1,EC50,[2],> 60 µM (not active)
same,EC50,[3],0.143 µM (active)
CCOC(=O)C1CCN(c2c(NCc3ccc(C(=O)Nc4ccc(C)cc4)cc3)c(=O)c2=O)CC1,EC50,[4],> 195 µM (not active)
O=C(O)c1cccc(NC(=S)NC(=O)c2ccc3ccccc3c2)c1,EC50,[4],20.6 µM (active)
COc1cccc(-n2ccnc2SCC(=O)Nc2ccccc2F)c1,EC50,[4],> 195 µM (not active)
CCOc1ccc(N(CC(=O)NCc2ccc(C)cc2)S(=O)(=O)c2c(C)nc(O)nc2O)cc1,EC50,Streptokinase A,> 150 µM (not active)
same,EC50,[1],> 150 µM (not active)
same,EC50,Streptococcus,> 150 µM (not active)
COc1ccc(-c2ncn(CCC#N)c2[N+](=O)[O-])cc1,EC50,Streptokinase A,> 150 µM (not active)
same,EC50,[1],3.52 µM (active)
same,EC50,Streptococcus,5.92 µM (active)
CSCC[C@H](NC(=O)N1CCn2c1nc1ccccc12)C(=O)NC1CC1,EC50,[4],> 195 µM (not active)
O=C(c1cnccn1)N1CCC2(CCCN(Cc3ccccc3)C2)CC1,AC50,Cytochrome P450 2D6,7.94 µM (inconclusive)
CCN1CCN(CCOc2ccc(Cl)cc2)CC1,EC50,[2],> 30 µM (not active)
same,EC50,[3],0.176 µM (active)
O=S(=O)(NCc1ccccn1)c1ccc(F)cc1,EC50,[4],> 195 µM (not active)
O=C(NCCCn1ccnc1)c1nn2c(C(F)(F)F)cc(-c3ccccc3)nc2c1Cl,EC50,Streptokinase A,> 150 µM (not active)
same,EC50,[1],> 150 µM (not active)
same,EC50,Streptococcus,> 150 µM (not active)
Cc1noc(C)c1COc1ccc(C(=O)OCC(=O)Nc2c(C)n(C)n(-c3ccccc3)c2=O)cc1,EC50,[4],> 195 µM (not active)
O=C(CSc1nc(Nc2ccccc2)nc(N2CCOCC2)n1)Nc1ccc([N+](=O)[O-])cc1,EC50,[2],> 60 µM (not active)
same,EC50,[3],2.18 µM (active)
COC(=O)c1ccc(N2CCC(c3cc(-c4ccc(OC)cc4)[nH]n3)CC2)c([N+](=O)[O-])c1,EC50,[1],3.87 µM (active)
same,EC50,Streptococcus,44.2 µM (active)
Cc1nc2cc(-c3ccccc3)nn2c(C)c1CCC(=O)NC(C)c1ccc2c(c1)OCCO2 (stereo unspecified),EC50,[4],> 195 µM (not active)
CCCn1c(=O)n(C)c(=O)c2c(SCC(=O)NC34CC5CC(CC(C5)C3)C4)nc(CC(C)C)nc21,EC50,[2],> 60 µM (not active)
same,EC50,[3],> 60 µM (not active)
CCCc1nnc(NC(=O)CCC(=O)N2CCN(S(=O)(=O)c3ccc(F)cc3)CC2)s1,EC50,[4],> 195 µM (not active)
COc1cc(CNCc2cccs2)ccc1OCC(N)=O,AC50,Cytochrome P450 1A2,39.8 µM (inconclusive)
O=C(Nc1ccc(Br)cc1)C1CCC(=O)N1Cc1ccccc1Cl (stereo unspecified),AC50,Cytochrome P450 1A2,14.1 µM (inconclusive)
Cc1nc(Nc2ccc3c(c2)OCCO3)c2nnn(Cc3ccccc3Cl)c2n1,EC50,[2],> 60 µM (not active)
same,EC50,[4],3.43 µM (active)
same,EC50,[3],2.74 µM (active)
O=C1NC(=O)N(Cc2ccccc2)C(=O)/C1=C/NCCN1CCNCC1,EC50,[4],> 195 µM (not active)
O=C(Cn1cnc2cc([N+](=O)[O-])ccc2c1=O)Nc1ccc2c(c1)CCC2,EC50,[2],> 60 µM (not active)
same,EC50,[3],0.5 µM (active)
O=C(Nc1ccc(S(=O)(=O)N2CCc3ccccc32)cc1)c1ccc2c(c1)OCO2,EC50,[2],> 60 µM (not active)
same,EC50,[3],3.4 µM (active)
Cc1ccc2oc(=O)cc(CN3CCN(C/C=C/c4ccccc4)CC3)c2c1,EC50,[2],> 60 µM (not active)
same,EC50,[3],0.293 µM (active)
Cc1ccccc1NC(=O)CN1CCC(n2nnc3ccccc32)CC1,AC50,Cytochrome P450 2D6,0.01 µM (inconclusive)
Oc1ccccc1/C=N/NC(=S)NC1CC2C=CC1C2 (stereo unspecified),EC50,Streptokinase A,> 16 µM (not active)
same,EC50,[1],5.04 µM (active)
same,EC50,Streptococcus,> 16 µM (not active)
C[C@@H]1CCCCO[C@@H](CN(C)S(=O)(=O)c2ccc(Cl)cc2)[C@H](C)CN([C@@H](C)CO)C(=O)c2cc(NS(=O)(=O)c3ccc(Cl)cc3)ccc2O1,AC50,Paired box protein Pax-8,2.78 µM (active)
COC(=O)[C@@]12C[C@@H](CC(=O)N3CCN(C(=O)c4ccco4)CC3)C(=O)N(Cc3ccco3)C1=CCC(C)(C)C2,AC50,Paired box protein Pax-8,2.44 µM (active)
Cc1noc(C)c1NC(=O)Nc1cccc2c1O[C@H](CN(C)Cc1ccc(C(F)(F)F)cc1)[C@H](C)CN([C@@H](C)CO)C2=O,AC50,Paired box protein Pax-8,27.5 µM (active)
C[C@H]1CCCCO[C@@H](CN(C)Cc2ccc(C(F)(F)F)cc2)[C@@H](C)CN([C@@H](C)CO)C(=O)c2cc(NS(=O)(=O)c3cccs3)ccc2O1,AC50,Paired box protein Pax-8,7.2 µM (active)
Cc1ccc(OCc2nnc(SC(C)C(=O)O)n2-c2ccccc2)cc1 (stereo unspecified),EC50,[4],> 195 µM (not active)
CC(C)/C(=N/Nc1ccccc1[N+](=O)[O-])c1ccccc1,EC50,Streptokinase A,18.4 µM (active)
same,EC50,[1],6.63 µM (active)
same,EC50,Streptococcus,52.5 µM (active)
O=C(N/N=C/c1ccc(F)cc1)c1ccc(OCc2ccccc2)cc1,EC50,[4],> 195 µM (not active)
CCCCCCn1c(=O)c(C(=O)N/N=C/c2cccc(F)c2)c(O)c2ccccc21,EC50,[1],11.6 µM (active)
same,EC50,Streptococcus,16.1 µM (active)
CN(C)C(=O)c1ccc(-c2cncnc2NCc2ccccc2)cc1,AC50,Cytochrome P450 1A2,20 µM (inconclusive)
COCC1=C(C(=O)OC(C)OC(=O)OC(C)C)N2C(=O)[C@@H](NC(=O)/C(=N\OC)c3csc(N)n3)[C@H]2SC1 (stereo partly specified) [CEFPODOXIME PROXETIL],EC50,[1],0.697 µM (active)
same,EC50,Streptococcus,0.987 µM (active)
O=C1c2ccccc2S(=O)(=O)N1CCCCN1CCN(c2ncccn2)CC1 [IPSAPIRONE],AC50,Cytochrome P450 2D6,20 µM (inconclusive)
same,AC50,Cytochrome P450 1A2,31.6 µM (inconclusive)

# — ChEMBL document CHEMBL1201862, “PubChem BioAssay data set” (2004)
